System: Human Pan T cells
Experiment: IL2 & IFN-γ released by human pan T cell (ELISA)
Assay type: cell-based
Settings: for EC50 / Human Pan T cells EC2x (nM, IL-2): IL-2, anti-CD3/CD28 stimulation, 48 hours; for Human Pan T cells EC2x (nM, IL-2): concentration giving 200% response (2 folds) over DMSO control; for Max fold change: IL-2 response over DMSO control; for Max fold change / efficacy in inducing IL-2 production: human pan T cells
Excerpt: This example is an assay method that can be used to determine compound effects on IL2 & IFN-γ release using pan T cells and ELISA assay format.
Procedures for Pan T isolation and Reagent preparation (Day 0): • 1. Cell Growth Medium: • RPMI1640: ATCC, Cat# 30-2001 • 10% FBS: Gibco, Cat# 10099141 • 1% Pen-Strep: Gibco, Cat # 15140122 • 1% Non-essential amino: Gibco, Cat #11140050 • Beta- Mercaptoethanol: Gibco, Cat#21985023 • 2. Pan T isolation buffer preparation: • Prepare a solution containing phosphate-buffered saline (PBS), pH 7.2, 0.5% bovine serum albumin (BSA), and 2 mM EDTA by diluting MACS® BSA Stock Solution (# 130-091-376) 20 times with autoMACS® Rinsing Solution. Keep buffer at 4° C. Degas buffer before use, as air bubbles could block the column.
• 3. Thawing of frozen PBMC • 1) Pre-heat medium at 37° C. water bath. • 2) Rapidly thaw cells in 37° C. water bath. • 3) Add the pre-warmed medium into 15 mL tube. Transfer cells to the tube. • 4) 300 × g centrifuge for 8 min. (centrifuge increase 0, decrease 0). • 5) Wash the PBMC using Rinsing buffer. • 6) Centrifuge PBMC at 300 × g for 8 min, wash it twice (centrifuge increase 9, decrease 1). • 7) Resuspend the cells with Pan T cells isolation buffer and count cells number. • 4. Pan T cells isolation: • Cell staining with microbead cocktail • 1) Prepare cells and determine cell number. Filter cells by 70 µm cell strainer. • 2) Resuspend cell pellet in 40 µL of buffer per 10^7 total cells. • 3) Add 10 µL of Pan T Cell Biotin-Antibody Cocktail per 10^7 total cells. • 4) Mix well and incubate for 10 minutes in the refrigerator (ice). • 5) Add 30 µL of buffer per 10^7 total cells. • 6) Add 20 µL of Pan T Cell MicroBead Cocktail per 10^7 total cells. • 7) Mix well and incubate for 15 minutes in the refrigerator (ice). • 8) Proceed to subsequent magnetic cell separation.
Subsequent manual cell separation: • 1) Place LS Column in the magnetic field of a suitable MACS Separator. For details refer to the respective MACS Column data sheet. • 2) Prepare column by rinsing with 3 mL of buffer. • 3) Apply cell suspension onto the column. Collect flow-through, which represents the enriched T cells. • 4) Wash column with 5 mL of buffer. Collect unlabeled cells that pass through, representing the enriched T cells.
Reminder: Always wait until the column reservoir is empty before proceeding to the next step. • 5. Pan T cell FACS: • 1) Take out 50 µL of PBMC and Pan T cells to FACS tubes respectively. • 2) Incubate cells with anti-human CD3/CD4/CD8 antibodies (1 µL/1 µL/1 µL /tube) for 20 min at 4° C. For unstained control, incubate cells with FACS staining buffer. • 3) Wash 2 times with cold staining buffer (PBS with 0.2%BSA and 1 mM EDTA). • 4) Run FACS. Gate CD3^+, CD3^+CD4^+, and CD3^+CD8^+ population for % analysis. • 5) If the purity of Pan T cells is higher than 90%, dilute cell suspension to 1 million cells/mL with the appropriate volume of Cell Culture Media. • 6) Dispense the cell suspension into a sterile, disposable reservoir for future use.
Procedures for preparation of compounds and anti-human CD3/CD28 (Day 0): • 1. Compound preparation • Compound serial dilution (source plate 1000×) • Compounds are solubilized in 100% DMSO to a concentration of 10 mM. Then they were 3-fold serially diluted to 8-point doses. • 4× Compound dose preparation (inter plate: Corning-3599): • Prepare 4× compound solution in culture medium. Pipet up and down. For the ZPE control, prepare 0.4% DMSO (4×) in culture medium. For the HPE control, prepare 0.4 µM of RGT003-026 (4×) in culture medium. • 2. Anti-human CD3 (stock conc. 6.76 mg/ml): stored at 4° C. • 1) Dilute anti-human CD3 with PBS to final conc. of 0.5 µg/mL. • 2) Add 50 µL /well of CD3 to each well, except for the positive and negative control wells. […] Rinse each well twice with 200 µL of sterile PBS each time. • 3. […]

SMILES | EC50 (Homo sapiens, T-cell) | EC50 | Human Pan T cells EC2x (nM, IL-2) | Max fold change | efficacy in inducing IL-2 production
COc1cc2c(cc1Nc1ncc(Cl)c(N3CC(C)(CC(=O)O)c4ccccc43)n1)CN(C)CC2 (single isomer, unassigned) [Example 2, (R)-2-(1-(5-chloro-2-((6-methoxy-2-methyl-1,2,3,4-tetrahydroisoquinolin-7-yl)amino)pyrimidin-4-yl)-3-methylindolin-3-yl)acetic acid or (S)-2-(1-(5-chloro-2-((6-methoxy-2-methyl-1,2,3,4-tetrahydroisoquinolin-7-yl)amino)pyrimidin-4-yl)-3-methylindolin-3-yl)acetic acid] | 16.2 nM |  | 12.5 (N = 10) nM | 3.2 (N = 10) | good efficacy
COc1cc2c(cc1Nc1ncc(Cl)c(N3CC(CC(=O)O)c4ccccc43)n1)CN(C)CC2 (stereo not shown) [Compound 8, reference compound] | 275 nM |  | 240 (N = 2) nM | 3.29 (N = 2) | 
COc1cc2c(cc1Nc1ncc(Cl)c(N3CC(C)(CC(=O)O)c4ccc(F)cc43)n1)CN(C)CC2 (stereo not shown) [Compound 10, reference compound] | 17.4 nM |  | 15.6 (N = 5) nM | 3.05 (N = 5) | 
COc1cc2c(cc1Nc1ncc(Cl)c(N3CC(C)(CC(=O)O)c4ccccc43)n1)CN(C)CC2 (stereo not shown) [Example 1, 2-(1-(5-chloro-2-((6-methoxy-2-methyl-1,2,3,4-tetrahydroisoquinolin-7-yl)amino)pyrimidin-4-yl)-3-methylindolin-3-yl)acetic acid] | 50 nM |  | 28 (N = 5) nM | 3.98 (N = 5) | good efficacy
CN1CCc2cc(F)c(Nc3ncc(Cl)c(N4CC(C)(CC(=O)O)c5ccccc54)n3)cc2C1 (stereo not shown) [Example 4, 2-(1-(5-chloro-2-((6-fluoro-2-methyl-1,2,3,4-tetrahydroisoquinolin-7-yl)amino)pyrimidin-4-yl)-3-methylindolin-3-yl)acetic acid] | 31.5 nM |  | 20.5 (N = 2) nM | 3.84 (N = 2) | good efficacy

Further lines, with some results ahead:

EC50 (Homo sapiens, T-cell) | EC50 | SMILES | Human Pan T cells EC2x (nM, IL-2) | Max fold change | efficacy in inducing IL-2 production
 | 17.4 nM | CN1CCc2cc(F)c(Nc3ncc(Cl)c(N4C[C@](C)(CC(=O)O)c5ccccc54)n3)cc2C1 (single isomer, unassigned) [Example 5, (R)-2-[1-[5-chloro-2-[(6-fluoro-2-methyl-3,4-dihydro-1H-isoquinolin-7-yl)amino]pyrimidin-4-yl]-3-methyl-indolin-3-yl]acetic acid or (S)-2-[1-[5-chloro-2-[(6-fluoro-2-methyl-3,4-dihydro-1H-isoquinolin-7-yl)amino]pyrimidin-4-yl]-3-methyl-indolin-3-yl]acetic acid] | 7.5 nM | 3.88 | good efficacy
278 nM |  | COc1cc2c(cc1Nc1ncc(Cl)c(N3CC(C(=O)O)c4ccccc43)n1)CN(C)CC2 (stereo not shown) [Compound 7, reference compound] | 338 (N = 6) nM | 3.2 (N = 6) | 

Source: patent US20230339896A1, “HPK1 INHIBITORS AND USES THEREOF” (QILU REGOR THERAPEUTICS INC., priority 2020, published 2023)
